Experiments:
[1] = biological target: T1, human full length PIK3KA Wild-type (p110α/p85α complex) (Homo sapiens, UniProt P42336); experiment: PI3K-alpha kinase (PIK3CA) biochemical activity, wild-type, ADP-Glo; conditions: PI3K-α (PIK3CA) biochemical, Soy PI lipid substrate
T1 construct: Recombinant, catalytically active human full length PIK3KA Wild-type and H1047R mutant were purchased as 1:1 complex; 6xHis (N); purchased EMD Millipore Sigma 14-602M
Procedure, shortened: (§1)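 ADP formation, read by ADP-Glo, is run to about 10% ATP turnover at 27 °C with 20 μM ATP and 50 μM PIP2diC8 or soy PI. WT or H1047R p110α/p85α (1–5 nM) is pre-incubated 1 h with compound in HEPES pH 7.4/MgCl2/Triton buffer, 1% DMSO. 10-point 1:3 series, logistic IC50 versus no-enzyme and DMSO controls.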

[2] = biological target: T2, human full length PIK3KA H1047R mutant (p110α/p85α complex) (Homo sapiens, UniProt P42336, H1047R); experiment: PI3K-alpha kinase (PIK3CA) biochemical activity, H1047R mutant, ADP-Glo; conditions: PI3K-α (PIK3CA) biochemical, H1047R mutant, Soy PI lipid substrate
T2 construct: Recombinant, catalytically active human full length PIK3KA Wild-type and H1047R mutant were purchased as 1:1 complex; 6xHis (N); purchased EMD Millipore Sigma 14-792M
T2 sequence (P42336 whole entry H1047R): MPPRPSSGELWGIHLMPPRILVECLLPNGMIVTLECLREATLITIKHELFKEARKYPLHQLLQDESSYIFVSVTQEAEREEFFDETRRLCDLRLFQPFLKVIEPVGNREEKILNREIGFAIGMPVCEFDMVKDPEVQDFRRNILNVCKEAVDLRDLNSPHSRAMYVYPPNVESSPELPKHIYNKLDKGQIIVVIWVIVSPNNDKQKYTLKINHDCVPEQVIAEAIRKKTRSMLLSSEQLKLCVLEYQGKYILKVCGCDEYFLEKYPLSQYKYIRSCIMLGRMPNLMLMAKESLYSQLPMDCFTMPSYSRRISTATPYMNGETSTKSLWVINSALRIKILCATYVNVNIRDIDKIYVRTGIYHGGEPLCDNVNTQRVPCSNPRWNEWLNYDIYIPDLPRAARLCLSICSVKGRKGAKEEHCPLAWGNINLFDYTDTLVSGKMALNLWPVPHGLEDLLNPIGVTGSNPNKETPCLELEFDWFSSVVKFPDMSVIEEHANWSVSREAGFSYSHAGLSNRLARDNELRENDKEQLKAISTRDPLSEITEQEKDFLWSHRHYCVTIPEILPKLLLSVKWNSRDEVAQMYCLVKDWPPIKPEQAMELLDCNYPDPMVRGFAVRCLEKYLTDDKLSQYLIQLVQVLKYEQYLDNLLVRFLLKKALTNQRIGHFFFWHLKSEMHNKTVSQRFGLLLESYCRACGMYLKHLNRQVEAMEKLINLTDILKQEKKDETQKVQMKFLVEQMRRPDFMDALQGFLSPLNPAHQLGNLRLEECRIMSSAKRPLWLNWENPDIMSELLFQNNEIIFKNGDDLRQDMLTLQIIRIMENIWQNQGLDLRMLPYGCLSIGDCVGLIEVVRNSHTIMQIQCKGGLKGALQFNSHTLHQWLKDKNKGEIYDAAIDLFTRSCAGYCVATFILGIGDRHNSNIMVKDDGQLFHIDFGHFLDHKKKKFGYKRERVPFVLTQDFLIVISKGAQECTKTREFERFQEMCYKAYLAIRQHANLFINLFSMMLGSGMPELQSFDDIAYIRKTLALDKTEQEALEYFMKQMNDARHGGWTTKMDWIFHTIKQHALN
T2 sequence (P27986 whole entry partner): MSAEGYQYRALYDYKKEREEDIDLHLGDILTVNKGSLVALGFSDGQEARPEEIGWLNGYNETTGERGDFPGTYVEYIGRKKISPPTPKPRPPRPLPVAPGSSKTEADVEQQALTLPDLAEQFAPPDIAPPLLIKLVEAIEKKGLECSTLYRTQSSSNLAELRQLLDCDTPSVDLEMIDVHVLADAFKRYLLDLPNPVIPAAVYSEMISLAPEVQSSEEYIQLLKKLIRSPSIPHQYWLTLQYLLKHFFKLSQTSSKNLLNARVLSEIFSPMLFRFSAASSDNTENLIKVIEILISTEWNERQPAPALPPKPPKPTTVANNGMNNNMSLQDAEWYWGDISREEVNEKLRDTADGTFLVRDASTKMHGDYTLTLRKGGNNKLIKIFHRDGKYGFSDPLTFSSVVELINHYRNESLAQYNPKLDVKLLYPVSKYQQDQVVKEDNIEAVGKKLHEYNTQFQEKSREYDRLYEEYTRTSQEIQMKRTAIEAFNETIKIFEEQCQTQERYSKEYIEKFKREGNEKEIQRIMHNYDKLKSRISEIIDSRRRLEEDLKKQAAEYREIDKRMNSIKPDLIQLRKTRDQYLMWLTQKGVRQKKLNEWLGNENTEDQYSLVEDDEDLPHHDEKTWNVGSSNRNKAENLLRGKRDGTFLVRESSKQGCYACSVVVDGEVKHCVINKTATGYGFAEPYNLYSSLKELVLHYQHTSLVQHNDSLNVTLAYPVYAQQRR
Procedure, shortened: as §1

[3] = test system: PI3K-α (PIK3CA) in MDA-MB-453 cells; experiment: PI3K-alpha kinase (PIK3CA) activity in vitro cell based assay, MDA-MB-453 cells, AlphaLisa SureFire; conditions: 0% FBS, 3 hours treatment, relative IC50
Procedure, shortened: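 MDA-MB-453 cells in serum-free MEM with 1 μg/mL insulin treated 3 h with 10-point 1:3 compound dilutions, 0.3% DMSO. Lysates read by AlphaLisa SureFire; percent inhibition relative to DMSO (max) and 1 μM GDC-0032 (min), duplicate means fitted to 4-parameter logistic for relative IC50.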

| IC50 [1] [nM] | IC50 [2] [nM] | IC50 ([3]; Homo sapiens, MDA-MB-453, 3 h) [nM] | IC50 [3] [nM] | Structure (SMILES) |
| --- | --- | --- | --- | --- |
| 1000 to 5000 | < 500 | < 50 | – | Cc1cc(C(C)Nc2cccc(F)c2C(=O)O)c2oc(-c3ccccc3F)c(C)c(=O)c2c1 (stereo not drawn) [Example 94, 2-Fluoro-6-[1-[2-(2-fluorophenyl)-3,6-dimethyl-4-oxo-chromen-8-yl]ethylamino]benzoic acid 2,2,2-trifluoroacetic acid] |
| < 500 | < 500 | < 50 | – | Cc1cc(C(C)Nc2ccc(C)nc2C(=O)O)c2oc(-c3ccccc3)c(C(F)(F)F)c(=O)c2c1 (stereo not drawn) [Example 101, 6-Methyl-3-[1-[6-methyl-4-oxo-2-phenyl-3-(trifluoromethyl)-chromen-8-yl]ethylamino]pyridine-2-carboxylic acid 2,2,2-trifluoroacetic acid] |
| 1000 to 5000 | < 500 | < 50 | – | Cc1cc(C(C)Nc2ccccc2C(=O)O)c2oc(-c3ccccc3)c(F)c(=O)c2c1 (stereo not drawn) [Example 111, 2-[1-(3-Fluoro-6-methyl-4-oxo-2-phenyl-chromen-8-yl)ethylamino]benzoic acid 2,2,2-trifluoroacetic acid] |
| 1000 to 5000 | < 500 | 50 to 100 | – | Cc1cc([C@@H](C)Nc2ccccc2C(=O)O)c2oc(-c3ccccc3)c(C3COC3)c(=O)c2c1 [Example 112, 2-[[(1R)-1-[6-methyl-3-(oxetan-3-yl)-4-oxo-2-phenyl-chromen-8-yl]ethyl]amino]benzoic acid 2,2,2-trifluoroacetic acid] |
| 1000 to 5000 | < 500 | < 50 | – | Cc1cc([C@@H](C)Nc2ccc(Cl)nc2C(=O)O)c2oc(-c3ccccc3F)c(C)c(=O)c2c1 [Example 114, 6-Chloro-3-[[(1R)-1-[2-(2-fluorophenyl)-3,6-dimethyl-4-oxo-chromen-8-yl]ethyl]amino]pyridine-2-carboxylic acid 2,2,2-trifluoroacetic acid] |
| 1000 to 5000 | < 500 | < 50 | – | Cc1cc([C@@H](C)Nc2ccccc2C(=O)O)c2oc(-c3cccc(C(C)(C)C#N)c3)c(C)c(=O)c2c1 [Example 117, 2-[[(1R)-1-[2-[3-(1-Cyano-1-methyl-ethyl)phenyl]-3,6-dimethyl-4-oxo-chromen-8-yl]ethyl]amino]benzoic acid 2,2,2-trifluoroacetic acid] |
| 1000 to 5000 | < 500 | < 50 | – | Cc1cc([C@@H](C)Nc2ccc(C)nc2C(=O)O)c2oc(-c3ccc(F)c(F)c3)c(C)c(=O)c2c1 [Example 124, 3-[[(1R)-1-[2-(3,4-Difluorophenyl)-3,6-dimethyl-4-oxo-chromen-8-yl]ethyl]amino]-6-methyl-pyridine-2-carboxylic acid] |
| 1000 to 5000 | < 500 | < 50 | – | Cc1cc([C@@H](C)Nc2ccc(C(F)(F)F)nc2C(=O)O)c2oc(-c3cccc(C#N)c3)c(C)c(=O)c2c1 [Example 126, 3-[[(1R)-1-[2-(3-Cyanophenyl)-3,6-dimethyl-4-oxo-chromen-8-yl]ethyl]amino]-6-(trifluoromethyl)pyridine-2-carboxylic acid] |

Second part, the compound before the results:

| Structure (SMILES) | IC50 [1] [nM] | IC50 [2] [nM] | IC50 ([3]; Homo sapiens, MDA-MB-453, 3 h) [nM] | IC50 [3] [nM] |
| --- | --- | --- | --- | --- |
| Cc1cc([C@@H](C)Nc2ccccc2C(=O)O)c2oc(-c3cccc(F)c3F)c(C)c(=O)c2c1 [Example 92, 2-[[(1R)-1-[2-(2,3-Difluorophenyl)-3,6-dimethyl-4-oxo-chromen-8-yl]ethyl]amino]benzoic acid 2,2,2-trifluoroacetic acid] | 5000 to 10000 | < 500 | < 50 | – |
| Cc1cc(C(C)Nc2cccnc2C(=O)O)c2oc(-c3ccccc3F)c(C)c(=O)c2c1 (stereo not drawn) [Example 93, 3-[1-[2-(2-Fluorophenyl)-3,6-dimethyl-4-oxo-chromen-8-yl]ethylamino]pyridine-2-carboxylic acid 2,2,2-trifluoroacetic acid] | > 10000 | 1000 to 5000 | 100 to 500 | – |
| Cc1cc(C(C)Nc2cccc(F)c2C(=O)O)c2oc(-c3cccc(F)c3)c(C)c(=O)c2c1 (stereo not drawn) [Example 95, 2-Fluoro-6-[1-[2-(3-fluorophenyl)-3,6-dimethyl-4-oxo-chromen-8-yl]ethylamino]benzoic acid 2,2,2-trifluoroacetic acid] | 1000 to 5000 | < 500 | < 50 | – |
| Cc1c(-c2ccc(F)c(F)c2)oc2c([C@@H](C)Nc3ccc(Cl)nc3C(=O)O)cc(C(F)(F)F)cc2c1=O [Example 96, 6-Chloro-3-[[(1R)-1-[2-(3,4-difluorophenyl)-3-methyl-4-oxo-6-(trifluoromethyl)-chromen-8-yl]ethyl]amino]pyridine-2-carboxylic acid] | 1000 to 5000 | < 500 | < 50 | – |
| Cc1c(-c2ccccc2F)oc2c([C@@H](C)Nc3ccc(Cl)nc3C(=O)O)cc(C(F)(F)F)cc2c1=O [Example 98, 6-Chloro-3-[[(1R)-1-[2-(2-fluorophenyl)-3-methyl-4-oxo-6-(trifluoromethyl)-chromen-8-yl]ethyl]amino]pyridine-2-carboxylic acid] | 1000 to 5000 | < 500 | < 50 | – |
| Cc1c(-c2ccc(F)cc2F)oc2c([C@@H](C)Nc3ccc(Cl)nc3C(=O)O)cc(C(F)(F)F)cc2c1=O [Example 99, 6-Chloro-3-[[(1R)-1-[2-(2,4-difluorophenyl)-3-methyl-4-oxo-6-(trifluoromethyl)-chromen-8-yl]ethyl]amino]pyridine-2-carboxylic acid] | 500 to 1000 | < 500 | < 50 | – |
| Cc1c(-c2ccccc2)oc2c([C@@H](C)Nc3ccccc3C(=O)O)cc(C(F)(F)F)cc2c1=O [Example 102, 2-[[(1R)-1-[3-Methyl-4-oxo-2-phenyl-6-(trifluoromethyl)-chromen-8-yl]ethyl]amino]benzoic acid] | 1000 to 5000 | < 500 | < 50 | – |
| Cc1cc([C@@H](C)Nc2ccc(Cl)nc2C(=O)O)c2oc(-c3ccc(F)c(F)c3)c(C)c(=O)c2c1 [Example 113, 6-Chloro-3-[[(1R)-1-[2-(3,4-difluorophenyl)-3,6-dimethyl-4-oxo-chromen-8-yl]ethyl]amino]pyridine-2-carboxylic acid] | 1000 to 5000 | < 500 | < 50 | – |
| Cc1cc([C@@H](C)Nc2ccc(Cl)nc2C(=O)O)c2oc(-c3cccc(C#N)c3)c(C)c(=O)c2c1 [Example 115, 6-Chloro-3-[[(1R)-1-[2-(3-cyanophenyl)-3,6-dimethyl-4-oxo-chromen-8-yl]ethyl]amino]pyridine-2-carboxylic acid 2,2,2-trifluoroacetic acid] | < 500 | < 500 | < 50 | – |
| Cc1cc([C@@H](C)Nc2ccccc2C(=O)O)c2oc(-c3cccc(C(C)(C)C(N)=O)c3)c(C)c(=O)c2c1 [Example 118, 2-[[(1R)-1-[2-[3-(2-Amino-1,1-dimethyl-2-oxo-ethyl)phenyl]-3,6-dimethyl-4-oxo-chromen-8-yl]ethyl]amino]benzoic acid 2,2,2-trifluoroacetic acid] | 1000 to 5000 | < 500 | 100 to 500 | – |
| CC(=O)c1c(-c2ccccc2)oc2c([C@@H](C)Nc3ccccc3C(=O)O)cc(C)cc2c1=O [Example 119, 2-[[(1R)-1-(3-Acetyl-6-methyl-4-oxo-2-phenyl-chromen-8-yl)ethyl]amino]benzoic acid 2,2,2-trifluoroacetic acid] | 500 to 1000 | < 500 | < 50 | – |
| Cc1cc([C@@H](C)Nc2cccnc2C(=O)O)c2oc(-c3ccc(F)c(F)c3)c(C)c(=O)c2c1 [Example 120, 3-[[(1R)-1-[2-(3,4-Difluorophenyl)-3,6-dimethyl-4-oxo-chromen-8-yl]ethyl]amino]pyridine-2-carboxylic acid] | > 10000 | 1000 to 5000 | 50 to 100 | – |
| Cc1cc([C@@H](C)Nc2ccc(Cl)nc2C(=O)O)c2oc(-c3cccc(C#N)c3)c(C)c(=O)c2c1 [Example 121, 6-Chloro-3-[[(1R)-1-[2-(3-cyanophenyl)-3,6-dimethyl-4-oxo-chromen-8-yl]ethyl]amino]pyridine-2-carboxylic acid] | 500 to 1000 | < 500 | – | < 50 |
| Cc1c(-c2ccccc2)oc2c([C@@H](C)Nc3cccnc3C(=O)O)cc(C(F)(F)F)cc2c1=O [Example 122, 3-[[(1R)-1-[3-Methyl-4-oxo-2-phenyl-6-(trifluoromethyl)-chromen-8-yl]ethyl]amino]pyridine-2-carboxylic acid] | > 10000 | 1000 to 5000 | 50 to 100 | – |
| Cc1cc([C@@H](C)Nc2ccc(C(F)(F)F)nc2C(=O)O)c2oc(-c3ccc(F)c(F)c3)c(C)c(=O)c2c1 [Example 123, 3-[[(1R)-1-[2-(3,4-Difluorophenyl)-3,6-dimethyl-4-oxo-chromen-8-yl]ethyl]amino]-6-(trifluoromethyl)pyridine-2-carboxylic acid] | 1000 to 5000 | < 500 | < 50 | – |
| Cc1cc([C@@H](C)Nc2cccnc2C(=O)O)c2oc(-c3cccc(C#N)c3)c(C)c(=O)c2c1 [Example 125, 3-[[(1R)-1-[2-(3-Cyanophenyl)-3,6-dimethyl-4-oxo-chromen-8-yl]ethyl]amino]pyridine-2-carboxylic acid] | 5000 to 10000 | 500 to 1000 | 50 to 100 | – |

Source: patent US11873295B2, “Allosteric chromenone inhibitors of phosphoinositide 3-kinase (PI3K) for the treatment of disease” (Petra Pharma Corporation, priority 2021, dated 2024)
